Measurements as given in ChEMBL document CHEMBL3272277, “Stereocontrolled glycosidation of daunomycinone. Synthesis and biological evaluation of 6-hydroxy-L-arabino analogues of antitumor anthracyclines” (J Med Chem, 1976).
Values after ≈ are worked out from the molar mass of the structure shown.

How the values were obtained:
MEF = assay: Inhibition of Murine sarcoma virus (Moloney) foci formation in MEF after 72 hrs; format: functional; details: Mus musculus, read-out: ID50 (the source's name)
Sarcoma-180 [1] = assay: Antitumor activity against mouse Sarcoma 180 cells allografted in mouse assessed as average survival time at 2 mg/kg, ip on day 1 post challenge relative to untreated control; format: functional; details: route intraperitoneal
HeLa = assay: Cytotoxicity against human HeLa cells assessed as cloning efficiency after 8 hrs; format: functional; details: read-out: ID50 (the source's name)
[2] = Antiproliferative activity against MEF after 72 hrs; format: cell-based; details: mouse, MEF cells; read-out: ID50
Mus musculus [3] = assay: Toxicity in mouse allografted with mouse Sarcoma 180 cells assessed as mortality at 2 mg/kg, ip on day 1 post challenge; format: organism-based; design: dose 2 mg/kg, route intraperitoneal; details: in vivo
Sarcoma-180 [4] = assay: Antitumor activity against mouse Sarcoma 180 cells allografted in mouse assessed as average survival time at 10 mg/kg, ip on day 1 post challenge relative to untreated control; format: functional; details: route intraperitoneal
Mus musculus [5] = assay: Toxicity in mouse allografted with mouse Sarcoma 180 cells assessed as mortality at 10 mg/kg, ip on day 1 post challenge; format: organism-based; design: dose 10 mg/kg, route intraperitoneal; details: in vivo
Mus musculus [6] = assay: Toxicity in mouse allografted with mouse Sarcoma 180 cells assessed as mortality at >5 mg/kg, ip on day 1 post challenge; format: organism-based; details: in vivo

SMILES | IC50 (MEF) | T/C (Sarcoma-180 [1]) | IC50 (HeLa) | GI50 at 72 h [2] | Activity (Mus musculus [3]) | T/C (Sarcoma-180 [4]) | Activity (Mus musculus [5]) | Activity (Mus musculus [6])
COc1cccc2c1C(=O)c1c(O)c3c(c(O)c1C2=O)C[C@@](O)(C(C)=O)C[C@@H]3O[C@H]1C[C@H](N)[C@H](O)[C@H](C)O1 [DAUNORUBICIN] | 0.0055 µg/mL (≈ 0.0104 µM) | 192% | 0.013 µg/mL (≈ 0.0246 µM) | 0.009 µg/mL (≈ 0.0171 µM) |  |  |  | 
COc1cccc2c1C(=O)c1c(O)c3c(c(O)c1C2=O)C[C@@](O)(C(=O)CO)C[C@@H]3O[C@H]1C[C@H](N)[C@@H](O)[C@H](CO)O1 | 0.025 µg/mL (≈ 0.0447 µM) |  | 1 µg/mL (≈ 1.79 µM) | 0.05 µg/mL (≈ 0.0894 µM) | Non-toxic | 162% | Non-toxic | 
COc1cccc2c1C(=O)c1c(O)c3c(c(O)c1C2=O)C[C@@](O)(C(C)=O)C[C@@H]3O[C@H]1C[C@H](N)[C@@H](O)[C@H](C)O1 |  |  |  |  |  |  |  | Toxic
COc1cccc2c1C(=O)c1c(O)c3c(c(O)c1C2=O)C[C@@](O)(C(C)=O)C[C@@H]3O[C@H]1C[C@H](N)[C@@H](O)[C@H](CO)O1.Cl | 0.1 µg/mL |  | > 10 µg/mL | 0.256 µg/mL | Non-toxic | 167% | Non-toxic | 
COc1cccc2c1C(=O)c1c(O)c3c(c(O)c1C2=O)C[C@@](O)(C(=O)CO)C[C@@H]3O[C@H]1C[C@H](N)[C@H](O)[C@H](C)O1.Cl [DOXORUBICIN HYDROCHLORIDE] | 0.0025 µg/mL | 210% | 0.11 µg/mL | 0.007 µg/mL |  |  |  | 
COc1cccc2c1C(=O)c1c(O)c3c(c(O)c1C2=O)C[C@@](O)(C(=O)CO)C[C@@H]3O[C@H]1C[C@H](N)[C@@H](O)[C@H](C)O1 [EPIRUBICIN] |  |  |  |  |  |  |  | Toxic
